Measurements published in paper PMC7719162, “Positioning of an unprecedented spiro[5.5]undeca ring system into kinase inhibitor space” (Scientific Reports, 2020).
Where two headings read alike, the source gives them in different places.

Assays:
[1] = target: T1, PIP5K1C (Homo sapiens, UniProt O60331); test: Kinase panel assay (lipid kinase); format: biochemical; settings: 30 μM compound, ATP 10 μM, duplicates Data 1/Data 2
T1 construct: purchased Reaction Biology Corp
Procedure: (§1) Every inhibitory activity of tested compounds was measured by radiolabelled method of Reaction Biology Corp). The radiolabelled ATP ([γ-^33P] ATP) replaced a substrate with ^33P-phosphorylated substrate so that the activity of a kinase was measured from the radiolabelled phosphorylated substrate. Kinase panel assay was tested at 30 μM testing compounds with an ATP concentration of 10 μM and a substrate concentration of 10 μM. % Residual activity against GSK3β was measured at 10 uM compounds 1 and 2. […] Curve fits of control compounds were performed where the enzyme activities at the highest concentration of compounds were less than 65%. The concentration of DMSO was controlled and raw data, % kinase activity was calculated relative to DMSO controls.

[2] = target: T2, PI4K2A (Homo sapiens, UniProt Q9BTU6); test: Kinase panel assay (lipid kinase); format: biochemical; settings: 30 μM compound, ATP 10 μM, duplicates Data 1/Data 2
T2 construct: purchased Reaction Biology Corp
Procedure: as §1

[3] = target: T3, PI3KC2A (Homo sapiens, UniProt O00443); test: Kinase panel assay (lipid kinase); format: biochemical; settings: 30 μM compound, ATP 10 μM, duplicates Data 1/Data 2
T3 construct: purchased Reaction Biology Corp
T3 sequence (O00443 whole entry): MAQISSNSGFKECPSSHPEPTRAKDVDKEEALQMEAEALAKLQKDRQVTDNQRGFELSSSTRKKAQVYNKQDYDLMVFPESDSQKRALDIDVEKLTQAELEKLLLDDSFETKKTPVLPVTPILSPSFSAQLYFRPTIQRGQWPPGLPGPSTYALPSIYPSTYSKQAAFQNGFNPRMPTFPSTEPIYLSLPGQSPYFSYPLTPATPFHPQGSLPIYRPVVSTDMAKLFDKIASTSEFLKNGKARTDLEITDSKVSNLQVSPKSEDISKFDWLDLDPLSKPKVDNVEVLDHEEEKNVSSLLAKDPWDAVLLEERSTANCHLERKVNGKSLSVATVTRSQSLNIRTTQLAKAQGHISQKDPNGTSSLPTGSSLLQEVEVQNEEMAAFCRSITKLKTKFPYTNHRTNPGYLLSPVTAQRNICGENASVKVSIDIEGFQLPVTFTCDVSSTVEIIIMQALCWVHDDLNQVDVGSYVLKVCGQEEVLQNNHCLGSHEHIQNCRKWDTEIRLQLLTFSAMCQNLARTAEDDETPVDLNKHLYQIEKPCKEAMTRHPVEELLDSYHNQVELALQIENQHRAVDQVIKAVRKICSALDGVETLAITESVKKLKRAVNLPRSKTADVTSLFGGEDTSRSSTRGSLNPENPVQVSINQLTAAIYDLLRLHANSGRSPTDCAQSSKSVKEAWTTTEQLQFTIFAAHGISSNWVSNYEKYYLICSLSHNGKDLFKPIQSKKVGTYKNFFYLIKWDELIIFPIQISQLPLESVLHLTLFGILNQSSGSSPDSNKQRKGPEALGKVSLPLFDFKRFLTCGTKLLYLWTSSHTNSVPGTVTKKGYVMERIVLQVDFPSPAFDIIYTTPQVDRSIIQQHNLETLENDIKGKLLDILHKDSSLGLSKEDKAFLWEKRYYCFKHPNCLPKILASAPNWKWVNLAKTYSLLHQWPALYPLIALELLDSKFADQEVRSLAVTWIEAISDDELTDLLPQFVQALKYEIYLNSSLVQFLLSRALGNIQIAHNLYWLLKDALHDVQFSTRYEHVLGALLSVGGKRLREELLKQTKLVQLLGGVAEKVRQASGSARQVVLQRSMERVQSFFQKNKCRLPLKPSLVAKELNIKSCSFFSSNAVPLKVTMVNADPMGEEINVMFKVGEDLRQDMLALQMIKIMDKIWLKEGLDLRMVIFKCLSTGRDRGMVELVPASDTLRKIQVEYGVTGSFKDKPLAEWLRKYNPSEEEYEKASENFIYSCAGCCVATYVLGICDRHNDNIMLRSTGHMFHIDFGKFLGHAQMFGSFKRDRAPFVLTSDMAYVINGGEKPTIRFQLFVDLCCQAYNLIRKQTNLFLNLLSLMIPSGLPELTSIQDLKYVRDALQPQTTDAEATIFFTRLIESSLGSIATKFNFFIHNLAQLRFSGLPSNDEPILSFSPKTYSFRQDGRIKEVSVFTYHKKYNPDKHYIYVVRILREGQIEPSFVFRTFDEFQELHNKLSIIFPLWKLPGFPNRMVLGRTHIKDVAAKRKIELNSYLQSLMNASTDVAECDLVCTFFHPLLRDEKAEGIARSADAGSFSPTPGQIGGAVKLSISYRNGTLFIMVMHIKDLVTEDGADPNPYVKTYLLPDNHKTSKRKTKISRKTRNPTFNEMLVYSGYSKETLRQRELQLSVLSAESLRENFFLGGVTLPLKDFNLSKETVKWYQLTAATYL
Procedure: as §1

[4] = target: T4, PIP5K1A (Homo sapiens, UniProt Q99755); test: Kinase panel assay (lipid kinase); format: biochemical; settings: 30 μM compound, ATP 10 μM, duplicates Data 1/Data 2
T4 construct: purchased Reaction Biology Corp
T4 sequence (Q99755 whole entry): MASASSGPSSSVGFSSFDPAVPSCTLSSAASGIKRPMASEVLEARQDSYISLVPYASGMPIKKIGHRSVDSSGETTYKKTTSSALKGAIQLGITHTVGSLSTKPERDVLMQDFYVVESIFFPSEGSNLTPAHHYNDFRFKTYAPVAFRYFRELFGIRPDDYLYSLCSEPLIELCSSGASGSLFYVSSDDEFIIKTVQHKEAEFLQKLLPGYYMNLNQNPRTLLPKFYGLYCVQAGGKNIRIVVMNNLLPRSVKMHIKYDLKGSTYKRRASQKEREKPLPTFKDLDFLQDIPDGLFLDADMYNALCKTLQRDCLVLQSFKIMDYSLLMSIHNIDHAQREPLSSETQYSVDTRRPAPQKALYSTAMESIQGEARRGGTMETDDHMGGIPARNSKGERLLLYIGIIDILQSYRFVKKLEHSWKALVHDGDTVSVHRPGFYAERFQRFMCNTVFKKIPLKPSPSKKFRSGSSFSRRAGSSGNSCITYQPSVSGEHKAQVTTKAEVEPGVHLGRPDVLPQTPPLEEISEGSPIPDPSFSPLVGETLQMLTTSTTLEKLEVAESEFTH
Procedure: as §1

[5] = target: T5, PI3KC3 (Homo sapiens, UniProt Q8NEB9); test: Kinase panel assay (lipid kinase); format: biochemical; settings: 30 μM compound, ATP 10 μM, duplicates Data 1/Data 2
T5 construct: purchased Reaction Biology Corp
T5 sequence (Q8NEB9 whole entry): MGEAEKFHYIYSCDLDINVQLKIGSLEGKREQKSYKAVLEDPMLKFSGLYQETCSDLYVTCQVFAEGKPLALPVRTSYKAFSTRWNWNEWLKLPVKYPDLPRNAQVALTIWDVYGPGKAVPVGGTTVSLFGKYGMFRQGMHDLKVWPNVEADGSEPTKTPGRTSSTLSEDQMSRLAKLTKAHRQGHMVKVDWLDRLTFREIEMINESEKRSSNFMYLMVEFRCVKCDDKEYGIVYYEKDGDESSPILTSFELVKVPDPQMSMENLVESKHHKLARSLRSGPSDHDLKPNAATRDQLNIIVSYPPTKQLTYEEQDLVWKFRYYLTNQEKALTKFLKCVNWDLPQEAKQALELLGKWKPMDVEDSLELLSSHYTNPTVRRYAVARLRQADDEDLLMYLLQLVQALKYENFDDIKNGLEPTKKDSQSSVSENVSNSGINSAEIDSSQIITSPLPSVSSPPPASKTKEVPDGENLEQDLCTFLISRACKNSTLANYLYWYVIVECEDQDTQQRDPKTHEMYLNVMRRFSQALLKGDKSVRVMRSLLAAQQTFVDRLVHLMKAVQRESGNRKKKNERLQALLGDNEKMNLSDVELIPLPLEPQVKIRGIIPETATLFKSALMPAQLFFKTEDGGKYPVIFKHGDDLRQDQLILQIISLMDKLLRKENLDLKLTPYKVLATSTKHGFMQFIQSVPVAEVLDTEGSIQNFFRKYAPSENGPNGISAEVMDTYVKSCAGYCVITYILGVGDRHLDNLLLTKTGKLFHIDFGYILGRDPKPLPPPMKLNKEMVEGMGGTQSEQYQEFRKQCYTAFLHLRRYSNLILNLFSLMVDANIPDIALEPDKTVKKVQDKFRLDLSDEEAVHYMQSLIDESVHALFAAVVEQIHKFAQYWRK
Procedure: as §1

[6] = target: T6, PI3K (p110a(E545K)/p85a) (Homo sapiens, UniProt P42336, E545K); test: Kinase panel assay (lipid kinase); format: biochemical; settings: 30 μM compound, ATP 10 μM, duplicates Data 1/Data 2
T6 construct: purchased Reaction Biology Corp

[7] = target: T7, AMPK(A1/B1/G2) (Homo sapiens, UniProt Q13131+Q9UGJ0+Q9Y478); test: Kinase panel assay (radiolabelled); format: biochemical; settings: 30 μM compound, ATP 10 μM; duplicates Data 1/Data 2; read-out: % Enzyme Activity (relative to DMSO controls)
T7 construct: purchased Reaction Biology Corp

[8] = target: T8, AMPK(A1/B1/G2) (Homo sapiens, UniProt Q13131); test: Kinase panel assay (radiolabelled); format: biochemical; settings: 30 μM compound, ATP 10 μM; duplicates Data 1/Data 2
T8 construct: purchased Reaction Biology Corp

[9] = target: T9, RIPK5 (Homo sapiens, UniProt Q6XUX3); test: Kinase panel assay (radiolabelled); format: biochemical; settings: ATP 10 μM
T9 construct: purchased Reaction Biology Corp
T9 sequence (Q6XUX3 1-929): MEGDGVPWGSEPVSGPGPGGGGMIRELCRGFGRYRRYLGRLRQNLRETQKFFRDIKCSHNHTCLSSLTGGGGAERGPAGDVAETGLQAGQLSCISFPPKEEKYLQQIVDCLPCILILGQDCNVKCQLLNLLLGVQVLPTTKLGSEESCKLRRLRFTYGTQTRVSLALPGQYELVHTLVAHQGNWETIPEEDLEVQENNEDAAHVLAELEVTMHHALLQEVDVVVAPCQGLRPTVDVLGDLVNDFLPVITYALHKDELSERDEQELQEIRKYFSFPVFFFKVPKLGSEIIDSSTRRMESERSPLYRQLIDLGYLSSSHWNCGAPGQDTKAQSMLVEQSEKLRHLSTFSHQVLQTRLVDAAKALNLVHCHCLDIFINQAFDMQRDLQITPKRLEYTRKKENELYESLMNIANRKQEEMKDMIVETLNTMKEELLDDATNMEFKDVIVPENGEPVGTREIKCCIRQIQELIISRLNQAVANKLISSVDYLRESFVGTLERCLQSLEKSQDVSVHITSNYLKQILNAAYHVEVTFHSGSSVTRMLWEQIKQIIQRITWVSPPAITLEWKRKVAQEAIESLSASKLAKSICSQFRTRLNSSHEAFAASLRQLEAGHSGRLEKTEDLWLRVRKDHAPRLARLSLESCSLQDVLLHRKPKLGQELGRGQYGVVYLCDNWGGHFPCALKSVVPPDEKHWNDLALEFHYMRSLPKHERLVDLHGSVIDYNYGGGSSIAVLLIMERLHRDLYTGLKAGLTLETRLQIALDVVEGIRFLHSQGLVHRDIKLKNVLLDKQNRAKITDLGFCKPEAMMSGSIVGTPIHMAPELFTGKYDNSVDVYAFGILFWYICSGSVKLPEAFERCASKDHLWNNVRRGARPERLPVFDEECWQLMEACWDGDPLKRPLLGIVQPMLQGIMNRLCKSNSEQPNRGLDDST

[10] = target: T10, TRKC (G623R) (Homo sapiens, UniProt Q16288, G623R); test: Kinase panel assay (radiolabelled); format: biochemical; settings: 30 μM compound, ATP 10 μM, duplicates Data 1/Data 2
T10 construct: purchased Reaction Biology Corp
T10 sequence (Q16288 32-839 G623R): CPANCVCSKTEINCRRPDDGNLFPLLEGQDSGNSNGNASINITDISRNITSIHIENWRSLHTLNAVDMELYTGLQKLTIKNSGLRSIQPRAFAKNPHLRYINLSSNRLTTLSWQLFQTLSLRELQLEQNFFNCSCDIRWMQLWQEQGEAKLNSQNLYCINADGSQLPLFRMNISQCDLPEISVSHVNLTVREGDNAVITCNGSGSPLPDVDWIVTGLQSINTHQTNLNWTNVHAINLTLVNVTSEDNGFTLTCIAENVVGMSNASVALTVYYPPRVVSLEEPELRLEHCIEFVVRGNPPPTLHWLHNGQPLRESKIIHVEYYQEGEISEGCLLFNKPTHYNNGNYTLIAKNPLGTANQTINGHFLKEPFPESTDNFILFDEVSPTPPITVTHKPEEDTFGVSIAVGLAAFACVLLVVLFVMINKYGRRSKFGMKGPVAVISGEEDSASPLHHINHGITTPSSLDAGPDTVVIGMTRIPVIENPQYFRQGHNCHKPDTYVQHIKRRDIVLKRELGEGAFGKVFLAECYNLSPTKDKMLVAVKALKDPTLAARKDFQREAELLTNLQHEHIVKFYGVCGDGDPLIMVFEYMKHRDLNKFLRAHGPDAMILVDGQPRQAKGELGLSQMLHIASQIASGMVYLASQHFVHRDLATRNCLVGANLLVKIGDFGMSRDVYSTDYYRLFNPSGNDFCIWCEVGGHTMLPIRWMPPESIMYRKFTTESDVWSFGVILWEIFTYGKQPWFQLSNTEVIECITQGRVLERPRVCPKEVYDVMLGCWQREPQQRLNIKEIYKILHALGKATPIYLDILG

[11] = test system: IL-6; test: Secreted IL-6 ELISA in LPS-induced BV-2 cells; format: cell-based, murine
Procedure: To evaluate the secreted level of Prostaglandin E2 (PGE2), Tumor necrosis factor (TNF-α), Interleukin (IL-6), Interleukin (IL-1β), BV2 cells were seeded in a 6 well plate at the density of 1.5 × 10^6 cells/well in DMEM and incubated for 24 h. Seeded cells sere pretreated and, activated with LPS for next 24 h. conditioned medium from treated cells were collected and stored at -80 degree for longer period of time. The amount of TNF-α, IL-1β, PGE2,and IL-6 were evaluated using the competitive enzyme immunoassay kit. PGE2 kit were obtained from (Cayman Chemical, Ann Arbor, MI, USA) and TNF-α, IL-1β, and IL-6 were measured using ELISA development kits (R&D Systems, Minneapolis, MN, USA). All the protocol was exactly followed as written in the manual.

[12] = target: T11, TRKC (Homo sapiens, UniProt Q16288); test: Kinase panel assay (radiolabelled); format: biochemical; settings: ATP 10 μM
T11 construct: purchased Reaction Biology Corp
T11 sequence (Q16288 32-839): as the sequence (Q16288 32-839 G623R) above, with R592G counted along it

[13] = target: T12, STK25/YSK1 (Homo sapiens, UniProt O00506); settings: cited from earlier work
T12 construct: purchased Reaction Biology Corp
T12 sequence (O00506 whole entry): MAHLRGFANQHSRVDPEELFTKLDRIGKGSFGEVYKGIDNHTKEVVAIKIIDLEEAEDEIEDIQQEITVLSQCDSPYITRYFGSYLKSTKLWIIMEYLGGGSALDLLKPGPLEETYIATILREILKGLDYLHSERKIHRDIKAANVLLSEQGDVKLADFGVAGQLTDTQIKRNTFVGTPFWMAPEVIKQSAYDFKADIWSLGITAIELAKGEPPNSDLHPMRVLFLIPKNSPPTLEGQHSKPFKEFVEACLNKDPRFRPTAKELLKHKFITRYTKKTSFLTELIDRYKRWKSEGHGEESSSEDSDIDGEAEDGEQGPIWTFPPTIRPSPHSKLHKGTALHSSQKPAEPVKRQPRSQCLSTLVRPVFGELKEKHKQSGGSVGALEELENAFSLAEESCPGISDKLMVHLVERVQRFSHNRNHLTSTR

[14] = target: T13, CDK3/cyclin E (Homo sapiens, UniProt Q00526); settings: cited from earlier work
T13 construct: purchased Reaction Biology Corp

[15] = target: T14, JNK3 (Homo sapiens, UniProt P53779); settings: cited from earlier work
T14 construct: purchased Reaction Biology Corp

[16] = read-out: % Enzyme Activity (relative to DMSO controls)
[17] = 30 μM compound, duplicates Data 1/Data 2
[18] = 30 μM compound, duplicates Data 1/Data 2, read-out: % Enzyme Activity (relative to DMSO controls)
[19] = 30 μM, average ± SD, read-out: % Residual Activity at 30 μM

T1 sequence (O60331 whole entry): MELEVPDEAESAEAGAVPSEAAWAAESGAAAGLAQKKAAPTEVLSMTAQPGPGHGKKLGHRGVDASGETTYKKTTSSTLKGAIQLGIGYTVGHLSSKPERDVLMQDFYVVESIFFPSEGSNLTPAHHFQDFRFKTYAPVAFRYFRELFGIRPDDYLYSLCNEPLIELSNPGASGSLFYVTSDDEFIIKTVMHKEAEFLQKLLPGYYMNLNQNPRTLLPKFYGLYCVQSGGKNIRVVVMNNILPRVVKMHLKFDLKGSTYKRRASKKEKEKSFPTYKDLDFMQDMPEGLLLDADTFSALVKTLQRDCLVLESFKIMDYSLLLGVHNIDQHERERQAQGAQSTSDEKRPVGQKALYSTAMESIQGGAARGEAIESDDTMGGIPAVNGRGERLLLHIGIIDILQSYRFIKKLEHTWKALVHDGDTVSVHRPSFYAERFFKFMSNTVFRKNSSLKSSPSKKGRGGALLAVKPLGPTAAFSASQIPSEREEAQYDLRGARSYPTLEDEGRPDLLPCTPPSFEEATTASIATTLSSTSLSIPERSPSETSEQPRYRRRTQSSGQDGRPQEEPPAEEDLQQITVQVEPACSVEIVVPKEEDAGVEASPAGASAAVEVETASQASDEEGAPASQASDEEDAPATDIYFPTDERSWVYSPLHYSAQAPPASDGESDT

O=C1C=CC2(C=C1)OCC(Cc1cn(-c3cccc(Cl)c3)nn1)C(=O)N2c1ccccc1 (centres unmarked) [2d, 3-((1-(3-Chlorophenyl)-1H-1,2,3-triazol-4-yl)methyl)-5-phenyl-1-oxa-5-azaspiro[5.5]undeca-7,10-diene-4,9-dione]
% Enzyme Activity (relative to DMSO controls) [1]: 87.90% | remaining activity at 30 µM [1, 16]: 88.2% | % Enzyme Activity (relative to DMSO controls) [2]: 74.47% | remaining activity at 30 µM [2, 16]: 75.9% | % Enzyme Activity (relative to DMSO controls) [3]: 123.51% | remaining activity at 30 µM [3, 16]: 122% | % Enzyme Activity (relative to DMSO controls) [4]: 84.84% | remaining activity at 30 µM [4, 16]: 86% | % Enzyme Activity (relative to DMSO controls) [5]: 98.59% | remaining activity at 30 µM [5, 16]: 99.8% | % Enzyme Activity (relative to DMSO controls) [6]: 206.92% | remaining activity at 30 µM [6, 16]: 206% | remaining activity at 30 µM [7]: 68% | % Enzyme Activity (relative to DMSO controls) [8]: 66.48% | % Enzyme Activity (relative to DMSO controls) [9, 17]: 83.85% | remaining activity at 30 µM [9, 18]: 86.1% | remaining activity at 30 µM [9, 19]: 85 ± 1.6% | % Enzyme Activity (relative to DMSO controls) [10]: 90.32% | remaining activity at 30 µM [10, 16]: 92.1% | IL-6 level [11]: concentration-dependent manner | % Enzyme Activity (relative to DMSO controls) [12, 17]: 102.60% | remaining activity at 30 µM [12, 18]: 108% | remaining activity at 30 µM [12, 19]: 105 ± 3.9%

O=C1C=CC2(C=C1)OCC(Cc1cc(C(F)(F)F)cc(C(F)(F)F)c1)C(=O)N2c1ccccc1 (racemic) [1c]
% Residual Activity at 30 μM [13]: 66.9 ± 0.1% | % Residual Activity at 30 μM [14]: 59.3 ± 1.2% | % Residual Activity at 30 μM [15]: 72.0 ± 2.0%
